Assays:
[1] = test system: RKO (RKOp27) human colon adenocarcinoma cells; experiment: Alamar Blue cell viability assay, anti-proliferative/cytotoxic activity on proliferating RKOp27 cells; format: cell-based; settings: absence of Ponasterone A, 72 hours incubation, read-out: IC50 RKO p27 proliferating
In short: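 RKOp27 subclone of RKO cells, 4000/well in DMEM with 10% FCS, was treated 24 h after seeding with semi-log compound dilutions in quadruplicate for 72 h at 37 °C, 5% CO2. Alamar Blue fluorescence (ex 544/em 590 nm) was read as % viability of untreated cells, and IC50 was taken from concentration-effect curves.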

[2] = test system: RKO colon adenocarcinoma cells (RKOp27) arrested by expression of ectopic p27Kip1; experiment: Alamar Blue cell viability assay on RKOp27 cells arrested by Ponasterone A-induced p27Kip1 (cell cycle specific mode of action); format: cell-based; settings: Homo sapiens, RKOp27, 72 h, cells arrested by p27Kip1 induced with 10 μM Ponasterone A, 72 hours incubation, read-out: IC50 RKO p27 arrested
In short: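 Viability measured by Alamar Blue fluorescence (ex 544, em 590 nm) after 72 h, 37 °C compound exposure in quadruplicate, normalized to untreated cells as 100%. Cells were p27Kip1-arrested RKOp27, induced with 10 μM Ponasterone A at seeding; compound added 24 h later.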

IC50 [2] [µM] | SMILES | IC50 [1] [µM]
≥ 100 | CCOc1ccccc1/C=C/C(=O)Nc1sc2c(c1C#N)CCN(C(=O)COCCOC)C2 [Example 217, (E)-N-{3-Cyano-6-[2-(2-methoxy-ethoxy)-ethanoyl]-4,5,6,7-tetrahydro-thieno[2,3-c]pyridin-2-yl}-3-(2-ethoxy-phenyl)-acrylamide] | ≤ 2
≥ 100 | CCOc1ccccc1/C=C/C(=O)Nc1sc2c(c1C#N)CCN(C(=O)COC)C2 [Example 223, (E)-N-[3-Cyano-6-(2-methoxy-ethanoyl)-4,5,6,7-tetrahydro-thieno[2,3-c]pyridin-2-yl]-3-(2-ethoxy-phenyl)-acrylamide] | ≤ 2
≥ 100 | CCOC(=O)N1CCc2c(sc(NC(=O)/C=C/c3cccc4c3OC(F)(F)O4)c2C#N)C1 [Example 230, 3-Cyano-2-[(E)-3-(2,2-difluoro-benzo[1,3]dioxol-4-yl)-allanoylamino]-4,7-dihydro-5H-thieno[2,3-c]pyridine-6-carboxylic acid ethyl ester] | ≤ 2
≥ 100 | CCOC(=O)N1CCc2c(sc(NC(=O)/C=C/c3ccccc3OC(F)F)c2C#N)C1 [Example 231, 3-Cyano-2{(E), 3-[2-(1,1-difluoro-methoxy)-phenyl]-allanoylamino}-4,7-dihydro-5H-thieno[2,3-c]pyridine-6-carboxylic acid ethyl ester] | ≤ 2
≥ 100 | CCOC(=O)N1CCc2c(sc(NC(=O)/C=C/c3ccc4c(c3Br)OCO4)c2C#N)C1 [Example 232, 2-[(E)-3-(4-Bromo-benzo[1,3]dioxol-5-yl)-allanoylamino]-3-cyano-4,7-dihydro-5H-thieno[2,3-c]pyridine-6-carboxylic acid ethyl ester] | ≤ 2
≥ 50 | CCOC(=O)N1CCc2c(sc(NC(=O)/C=C/c3ccccc3OC(F)(F)F)c2C#N)C1 [Example 233, 3-Cyano-2-[(E)-3-(2-trifluoromethoxy-phenyl)-allanoylamino]-4,7-dihydro-5H-thieno[2,3-c]pyridine-6-carboxylic acid ethyl ester] | ≤ 0.5
≥ 100 | CCOC(=O)N1CCc2c(sc(NC(=O)/C=C/c3cccc4c3OCC4)c2C#N)C1 [Example 234, 3-Cyano-2-((E)-3-2,3-dihydro-benzofuran-7-yl-allanoylamino)-4,7-dihydro-5H-thieno[2,3-c]pyridine-6-carboxylic acid ethyl ester] | ≤ 2
≥ 100 | CCOc1ccccc1/C=C/C(=O)Nc1sc2c(c1C#N)CCN(C(=O)OCCOC)C2 [Example 235, 3-Cyano-2-[(E)-3-(2-ethoxy-phenyl)-allanoylamino]-4,7-dihydro-5H-thieno[2,3-c]pyridine-6-carboxylic acid 2-methoxy-ethyl ester] | ≤ 2
≥ 100 | CCOc1ccccc1/C=C/C(=O)Nc1sc2c(c1C#N)CCN(C(=O)OCc1ccccn1)C2 [Example 236, 3-Cyano-2-[(E)-3-(2-ethoxy-phenyl)-allanoylamino]-4,7-dihydro-5H-thieno[2,3-c]pyridin-6-carboxylic acid pyridin-2-ylmethyl ester] | ≤ 2
≥ 100 | CCOc1ccccc1/C=C/C(=O)Nc1sc2c(c1C#N)CCN(C(=O)OCc1cccnc1)C2 [Example 237, 3-Cyano-2-[(E)-3-(2-ethoxy-phenyl)-allanoylamino]-4,7-dihydro-5H-thieno[2,3-c]pyridine-6-carboxylic acid pyridin-3-ylmethyl ester] | ≤ 2
≥ 100 | CCOc1ccccc1/C=C/C(=O)Nc1sc2c(c1C#N)CCN(C(=O)OCc1ccncc1)C2 [Example 238, 3-Cyano-2-[(E)-3-(2-ethoxy-phenyl)-allanoylamino]-4,7-dihydro-5H-thieno[2,3-c]pyridine-6-carboxylic acid pyridin-4-ylmethyl ester] | ≤ 2

Further lines, the molecule ahead of its results:

SMILES | IC50 [2] [µM] | IC50 [1] [µM]
CCOc1ccccc1/C=C/C(=O)Nc1sc2c(c1C#N)CCN(C(=O)Cc1ccccn1)C2 [Example 218, (E)-N-[3-Cyano-6-(2-pyridin-2-yl-ethanoyl)-4,5,6,7-tetrahydro-thieno[2,3-c]pyridin-2-yl]-3-(2-ethoxy-phenyl)-acrylamide] | ≥ 100 | ≤ 2
CCOc1ccccc1/C=C/C(=O)Nc1sc2c(c1C#N)CCN(C(=O)Cc1cccnc1)C2 [Example 219, (E)-N-[3-Cyano-6-(2-pyridin-3-yl-ethanoyl)-4,5,6,7-tetrahydro-thieno[2,3-c]pyridin-2-yl]-3-(2-ethoxy-phenyl)-acrylamide] | ≥ 100 | ≤ 2
CCOc1ccccc1/C=C/C(=O)Nc1sc2c(c1C#N)CCN(C(=O)CCc1cccnc1)C2 [Example 220, (E)-N-[3-Cyano-6-(3-pyridin-3-yl-propanoyl)-4,5,6,7-tetrahydro-thieno[2,3-c]pyridin-2-yl]-3-(2-ethoxy-phenyl)-acrylamide] | ≥ 50 | ≤ 0.5
CCOc1ccccc1/C=C/C(=O)Nc1sc2c(c1C#N)CCN(C(=O)CCc1ccccc1)C2 [Example 221, (E)-N-[3-Cyano-6-(3-phenyl-propanoyl)-4,5,6,7-tetrahydro-thieno[2,3-c]pyridin-2-yl]-3-(2-ethoxy-phenyl)-acrylamide] | ≥ 100 | ≤ 2
CCOc1ccccc1/C=C/C(=O)Nc1sc2c(c1C#N)CCN(C(=O)CCc1ccccn1)C2 [Example 222, (E)-N-[3-Cyano-6-(3-pyridin-2-yl-propanoyl)-4,5,6,7-tetrahydro-thieno[2,3-c]pyridin-2-yl]-3-(2-ethoxy-phenyl)-acrylamide] | ≥ 50 | ≤ 0.5
CCOc1ccccc1/C=C/C(=O)Nc1sc2c(c1C#N)CCN(C(=O)CCn1ccnc1)C2 [Example 224, (E)-N-[3-Cyano-6-(3-imidazol-1-yl-propanoyl)-4,5,6,7-tetrahydro-thieno[2,3-c]pyridin-2-yl]-3-(2-ethoxy-phenyl)-acrylamide] | ≥ 100 | ≤ 2
COCCOCC(=O)N1CCc2c(sc(NC(=O)/C=C/c3ccco3)c2C#N)C1 [Example 226, (E)-N-{3-Cyano-6-[2-(2-methoxy-ethoxy)ethanoyl]-4,5,6,7-tetrahydro-thieno[2,3-c]pyridin-2-yl}-3-furan-2-yl-acrylamide] | ≥ 100 | ≤ 2
N#Cc1c(NC(=O)/C=C/c2ccco2)sc2c1CCN(C(=O)Cc1ccccn1)C2 [Example 227, (E)-N-[3-Cyano-6-(2-pyridin-2-yl-ethanoyl)-4,5,6,7-tetrahydro-thieno[2,3-c]pyridin-2-yl]-3-furan-2-yl-acrylamide] | ≥ 100 | ≤ 2
N#Cc1c(NC(=O)/C=C/c2ccco2)sc2c1CCN(C(=O)Cc1cccnc1)C2 [Example 228, (E)-N-[3-Cyano-6-(2-pyridin-3-yl-ethanoyl)-4,5,6,7-tetrahydro-thieno[2,3-c]pyridin-2-yl]-3-furan-2-yl-acrylamide] | ≥ 100 | ≤ 2
N#Cc1c(NC(=O)/C=C/c2ccco2)sc2c1CCN(C(=O)CCc1cccnc1)C2 [Example 229, (E)-N-[3-Cyano-6-(3-pyridin-3-yl-propanoyl)-4,5,6,7-tetrahydro-thieno[2,3-c]pyridin-2-yl]-3-furan-2-yl-acrylamide] | ≥ 100 | ≤ 2
